Test results taken from PMC11676896, “Protective Action of Cannabidiol on Tiamulin Toxicity in Humans—In Vitro Study” (International Journal of Molecular Sciences, 2024).
Counter-ions that a name gives are not always drawn.

Assays:
HEK 293 cells [1] = test: NRU assay (lysosomal activity); format: cell-based, human
Experimental: (§1) The cytotoxic potential of the veterinary drug and its mixtures with cannabidiol at two non-toxic concentrations: 1.56 and 3.15 µg/mL, on the human SH-SY5Y, HepG2 and HEK 293 cell lines was assessed by decreased viability of the cells within five biochemical endpoints: mitochondrial activity and lysosomal activity (MTT assays, reducing the tetrazolium dye MTT 3-(4,5-dimethylthiazol-2-yl)-2,5-diphenyltetrazolium bromide and neutral red uptake (NRU) assays), total protein content (TPC assay), cellular membrane integrity (leakage lactate dehydrogenase (LDH) assay) and DNA synthesis (the bromodeoxyuridine/5-bromo-2′-deoxyuridine incorporation into the DNA cells (BrdU) assay) after 72 h exposition. Data obtained from the measurement of the optical density in these assays were transformed to percentages in relation to the negative control group (0.1% DMSO in medium), considered to be 100% for the MTT, NRU, TPC and BrdU assays and 0% for the LDH assay. 1% Trition-X 100 solution in medium was used as the positive controls, (Figure 3).
(§2) The human neuroblastoma (SH-SY5H), hepatoma (HepG2) and kidney cells (HEK 293) cells were purchased from the American Type Culture Collection: ATCCCRL-2266,ATCC HB-8065 and ATCC CRL-1573, respectively. These cells were cultured in Minimum Essential Medium Eagle (MEME) (ATCC). The media were supplemented with 10% FBS, 1% L-glutamine (and 1% antibiotic solution (P4333 Sigma). The cells were maintained in 75 cm^2 cell culture flasks (NUNC) in a humidified incubator at 37 °C in an atmosphere of 5% CO2. The medium was refreshed every two or three days, and the cells were subcultured by 0.25% trypsin–0.02% EDTA after reaching 70–80% confluence. Single cell suspensions were prepared and adjusted to a density of 2 × 10^5 cell/mL^−1 (SH-SY5H), 1 × 10^5 cell/mL^−1 (HepG2) and 1 × 10^5 cell/mL^−1 (HEK-293). The cell suspension was transferred to 96-well plates (100 µL/well) or Lab-Tek chamber slides (8 wells) (Nunc) for staining and incubated for 24 h before the exposure to the studied compounds. Stock solutions of tiamulin fumarate and cannabidiol were prepared in DMSO and diluted with culture medium to obtain a concentration range from 1.56 to 200 µg/mL and 1.56 or 3.156 µg/mL, respectively. […] Cytotoxicity was assessed after 72 h of exposure of the cells to the compounds. […]
(§3) This method is based on staining living cells with neutral red, which readily diffuses through the plasma membrane and accumulates in lysosomes. […] After 10 min of shaking, the absorbance of the dissolved NR was measured using a Synergy 2 Multi-Mode Microplate Reader (BioTek® Instruments Inc., Winooski, VT, USA) at 540 nm using a blank as a reference. Cytotoxicity was expressed as a percentage of the negative control (0.1% DMSO in medium). […]

SH-SY5Y cells [2] = test: NRU assay (lysosomal activity); format: cell-based, human; settings: 72 h
Experimental: as §1, §2, §3

HEK-293 cells = test: Hoechst 33342/propidium iodide double staining (apoptosis and necrosis); format: cell-based; settings: HEK-293, 72 h of incubation
Excerpt: (§4) After assessing the cytotoxicity of tiamulin and its mixtures with CBD, cell death was examined using the Hoechst 33342/propidium iodide (PI) double staining test (Figure 6). The intensity of the blue color and the presence of fragmented, blue-stained cellular components indicated apoptotic cell death after Hoechst 33342 staining. Necrotic cell death was identified by red fluorescence after PI staining. […] Mixtures of tiamulin and CBD caused a decrease in both apoptotic and necrotic cell death.
(§5) The analysis of type and level of cellular death in the control and tested cultures was evaluated using fluorochrome staining, Hoechst 33342 (Sigma, St. Louis, MO, USA) and propidium iodide (Sigma, St. Louis, MO, USA) mixed for apoptosis and necrosis evaluation. Using an Axiaert 200 M fluorescence micrscope (Zeiss, Obercochem, Germany), dead cells were analyzed morphologically. Cells with pink fluorescent nuclei were considered necrotic, whereas those with blue fluorescent nuclei (fragmented and/or with condensed chromatin) were considered apoptotic.

HepG2 cells [3] = test: as above; format: cell-based; settings: HepG2, 72 h of incubation
Excerpt: as §4, §5

SH-SY5Y cells [4] = test: as above; format: cell-based; settings: 72 h of incubation
Excerpt: as §4, §5

HEK 293 cells [5] = test: BrdU assay (DNA synthesis); format: cell-based, human
Experimental: as §1
(§6) The human neuroblastoma (SH-SY5H), hepatoma (HepG2) and kidney cells (HEK 293) cells were purchased from the American Type Culture Collection: ATCCCRL-2266,ATCC HB-8065 and ATCC CRL-1573, respectively. These cells were cultured in Minimum Essential Medium Eagle (MEME) (ATCC). The media were supplemented with 10% FBS, 1% L-glutamine (and 1% antibiotic solution (P4333 Sigma). The cells were maintained in 75 cm^2 cell culture flasks (NUNC) in a humidified incubator at 37 °C in an atmosphere of 5% CO2. The medium was refreshed every two or three days, and the cells were subcultured by 0.25% trypsin–0.02% EDTA after reaching 70–80% confluence. Single cell suspensions were prepared and adjusted to a density of 2 × 10^5 cell/mL^−1 (SH-SY5H), 1 × 10^5 cell/mL^−1 (HepG2) and 1 × 10^5 cell/mL^−1 (HEK-293). The cell suspension was transferred to 96-well plates (100 µL/well) or Lab-Tek chamber slides (8 wells) (Nunc) for staining and incubated for 24 h before the exposure to the studied compounds. Stock solutions of tiamulin fumarate and cannabidiol were prepared in DMSO and diluted with culture medium to obtain a concentration range from 1.56 to 200 µg/mL and 1.56 or 3.156 µg/mL, respectively. The selection of tiamulin concentrations was based on data from the literature and pilot studies. The final concentration of DMSO was 0.1% in the medium. The same final concentrations of the solvent and the 1% Trition-X 100 solution were used as the negative and positive controls, respectively. A total of 500 µM hydrogen peroxide (H2O2) in was used as the positive control in the DCFH assay. […] As a negative control, cultured cells were grown in the absence of studied compounds. Each concentration was tested in six replicates in three independent experiments. Cytotoxicity was assessed after 72 h of exposure of the cells to the compounds. The medium was not changed during the incubation time.
(§7) Cell proliferation was evaluated by BrdU assay using a Cell Proliferation ELISA, BrdU (colorimetric) kit (Roche, Switzerland), according to manufacturer’s instructions. Briefly, BrdU was incorporated in the place of thymidine into the DNA of cells under division. This BrdU was detected by an anti-BrdU antibody conjugated with peroxidase and the reaction product of the enzyme with the given substrate was quantified by measuring its absorbance. The absorbance (A) was measured at 370 nm and 492 nm in a Synergy 2 Multi-Mode Microplate Reader (BioTek® Instruments Inc., Winooski, VT, USA), using a blank as a reference.
(§8) This study was performed in three independent experiments. The obtained results are presented as mean values ± SD (standard deviation). The assessment of the cytotoxicity data used a one-way analysis of variance (ANOVA) followed by Dunnett’s post hoc test, which was applied to determine significance relative to the negative control. […]

HepG2 cells [6] = test: BrdU assay (DNA synthesis); format: cell-based, human; settings: HepG2, 72 h
Experimental: as §1, §6, §7, §8

SH-SY5Y cells [7] = test: BrdU assay (DNA synthesis); format: cell-based, human; settings: 72 h
Experimental: as §1, §6, §7, §8

[8] = Homo sapiens, read-out: inhibited concentration (IC50), BrdU

Structure (SMILES): C=C[C@]1(C)C[C@@H](OC(=O)CSCCN(CC)CC)[C@]2(C)[C@H](C)CC[C@]3(CCC(=O)[C@H]32)[C@@H](C)[C@@H]1O [T, tiamulin fumarate]
- tiamulin concentration that inhibited lysosomal activity (HEK 293 cells [1]; HEK-293, 72 h): 25 µg/mL
- IC50 (HEK 293 cells [1]; Homo sapiens, HEK293, 72 h, read-out: inhibited concentration (IC50), NRU): 34.5 ± 1.1 µg/mL
- tiamulin concentration that inhibited lysosomal activity (SH-SY5Y cells [2]; significant (p ≤ 0.05) vs negative control): 1.56 µg/mL
- IC50 (SH-SY5Y cells [2]; Homo sapiens, read-out: inhibited concentration (IC50), NRU): 2.1 ± 0.4 µg/mL
- apoptotic and necrotic cell death (HEK-293 cells): significant apoptotic and necrotic profiles
- apoptotic and necrotic cell death (HepG2 cells [3]): significant apoptotic and necrotic profiles
- apoptotic and necrotic cell death (SH-SY5Y cells [4]): slight increase in apoptotic and necrotic cells
- tiamulin concentration that inhibited DNA synthesis (HEK 293 cells [5]; HEK-293, 72 h): 12.5 µg/mL
- IC50 (HEK 293 cells [5]; Homo sapiens, HEK293, 72 h, read-out: inhibited concentration (IC50), BrdU): 14.6 ± 1.3 µg/mL
- tiamulin concentration that inhibited DNA synthesis (HepG2 cells [6]): 25 µg/mL
- IC50 (HepG2 cells [6]; [8]): 13.9 ± 0.8 µg/mL
- tiamulin concentration that inhibited DNA synthesis (SH-SY5Y cells [7]): 6.25 µg/mL
- IC50 (SH-SY5Y cells [7]; [8]): 9.9 ± 1.1 µg/mL
